Legend:
HIV-1 integrase = target: T1, HIV-1 integrase (Human immunodeficiency virus type 1 group M subtype B, UniProt P04585); experiment: Test of sample inhibition to HIV-1 integrase (ELISA, strand transfer); type: biochemical
T1 construct: purified HIV-1 integrase is added to donor substrates coated 96-well plate; made in house
Description: The half-inhibitory concentration IC50 for 3′ excision of the substrate and the strand transfer is in the range of 88.92-10.20 μg/ml, in which the best inhibitory activity of the compound is higher than that of the monomer compound of hydroxybenzoic acid. The mechanism of the HIV-1 integrase is a two-step reaction: 1) 3′ Processing: the integrase binds to the specific sequences of the long terminal repeat region (LTR) of the proviral DNA to form a stable complex, then the endonucleotides of 3′ end of nucleoside is processed, and the GT dinucleotide of the sequence . . . […] Thus, the activity of the integrase inhibitor is embodied in inhibiting the excision of the 3′end of the viral DNA or the strand transfer, and is represented by a half-inhibitory concentration IC50.
In vitro integrase test, 30 synthetic oligonucleotides are used as donor substrates, 20 synthetic oligonucleotides are used as target substrates. Purified HIV-1 integrase is added to donor substrates coated 96-well plate, ELISA reaction is performed, the product of the strand transfer of target DNA is detected, color development is conducted by biotin-labeled alkaline phosphatase system, and the microplate reader is used to measure the OD value.
First, inhibitors of the enzyme may be screened by adding a sample to the reaction system. Before use, the sample is prepared with DMSO to an appropriate concentration, and then is diluted 5 times at 4 dilutions. The sample after dilution is added into the donor substrate coated 96-well plate, and then added to the reaction Buffer containing the genetically engineered target enzyme and the biotin-target substrate, incubated under optimal reaction conditions, and colored by biotin-labeled alkaline phosphatase system, and the OD value for absorbance value at 405 nm is measured.
30 synthetic oligonucleotides are used as donor substrates, 20 synthetic oligonucleotides are used as target substrates, purified HIV-1 integrase is added to donor substrates coated 96-well plate, ELISA reaction is performed, the product of the strand transfer of target DNA is detected, color development is conducted by biotin-labeled alkaline phosphatase system, and the OD value is measured by a microplate reader. The addition of samples to the reaction system can be used to screen inhibitors for the enzyme.
1. HIV-1 IN: it is extracted and saved by Chinese National New Drug Screening Center and Institute of Pharmaceutical Biotechnology under Chinese Academy of Medical Sciences.
2. Sample Treatment: 10 samples A1-A10 dissolved into DMSO prior to use are prepared into suitable concentrations, and then diluted 5 times at 4 dilutions. Donor substrate and target substrate are from Shanghai Biochemical Synthesis.
3. Method for Test: the samples after dilution are added into the donor substrate coated 96-well plate, then added to the reaction Buffer containing the genetically engineered target enzyme and the biotin-target substrate, incubated under optimal reaction conditions, and colored by biotin-labeled alkaline phosphatase system, and the OD value for absorbance value at 405 nm is measured.

MCF7 = experiment: MTT in vitro tumor cell inhibition; type: cell-based; conditions: 3 days
From the text: An effective amount of the above compounds and/or the compositions containing the same used as an active ingredient have an effect on inhibiting the tumor cells. The present invention detects the inhibitory effect of the hydroxy-substituted benzophenone compounds on the proliferation of the in vitro cultured human tumor cells by the methylthiazolyl tetrazolium method.
The method is used to detect cell viability. […] Particles can be dissolved by dimethyl sulfoxide (DMSO) isopropyl alcohol or 10% acidified SDS (sodium dodecyl sulfate), and a microplate reader is used to measure the OD value at A570 wavelength, which indirectly reflects the number of live cells. The method is used for detection of the cytokines bioactivity, as well as anti-tumor drugs and tumor radiosensitivity and cytotoxicity test, and has the characteristics of being simple, fast, economical, sensitive and accurate and having good reproducibility and no need to use radionuclides. This method has been widely used in screening preclinical anticancer drugs and detecting the drug sensitivity of fresh tumor cells. The method is as below:
(1) The tumor cell suspension prepared by 0.25% of trypsin digestion and adjusted to a cell concentration of 10^5/ml with RPMI1640 containing 10% fetal calf serum is added to a 96-well plate with 100 μl for each well, cultured 24 hours, and then different dosages of drugs are added with 100 μl/well, for which, the negative control groups, positive control groups and withering wells are set, and 4 parallel wells are set for each group.
(2) They are continually cultured in incubator containing 5% of CO2 at 37° C. for 24 to 48 hours. MTT solution (5 g/L) is added to each well before the termination of the experiment. The OD value at A570 nm is detected by microplate reader. The OD value at A570 of the negative group without the addition of drugs is taken as a control. The cell survival rate and cell inhibition rate of drugs are calculated according to the following formula: Cell survival rate=(OD value of test group/OD value of control group)×100% Cell inhibition rate (%)=(OD value of the control group−OD value of the test group/(OD value of the control group−OD value of the blank group)
The tumor cell lines are cultured in RPMI-1640 medium containing 15% of the newborn bovine serum in a conventional manner, placed in the humidification incubator containing 5% of CO2 for being cultured at 37° C., and are observed for growth by an inverted microscope. A subculture is conducted every about 3-5 days, the cells in logarithmic growth phase are adopted to be digested with 0.25% of trypsin, and the serum-free RPMI-1640 medium is used for culturing the cell suspension; the blood counting plate makes counting, the trypan blue exclusion tests the cell activity, and the cell viability>95% is used for formal tests.
Liquid preparation: the compounds are labeled with the codes respectively, DMSO is used to dissolve each compound, the bacterial filter is used to remove bacteria, and each compound is prepared into 10^−4 g/ml, 10^−5 g/ml, 10^−6 g/ml and preserved at 4° C. for use.
MTT method: a bottle of 4-5 days old cells in the exponential growth phase are adopted to be cultured, and added with an appropriate amount of Trypsin-EDTA solution, so as to enable the adherent cells to fall off, and are prepared with 10 ml of RPMI-1640 medium containing 15% newborn bovine serum into suspensions; after stained with trypan blue, the cell number is counted on the blood counting plate to ensure that the live cells is more than 97%; the cell suspensions are diluted by the complete medium so that each […] of solution contains 5000-400000 cells; the 96-well plate is used with 200 μl of cell suspensions added into each. The 96-well plate is placed at 37° C. in 5% of CO2 containing incubator for 24 hours; the test compounds are diluted at 3 dilutions with 5 wells in parallel for each concentration; the serum-free RPMI1640 is used as the control group. […]

For `O=C(c1ccccc1)c1ccc(O)c(O)c1O` [2,3,4-trihydroxybenzophenone], which IC50 (HIV-1 integrase) is on record?
The IC50 was 52.6 µM.

And the Inhibitory rate % (MCF7; MCF7, 10^−4 g/ml)?
The Inhibitory rate % was 78.59%.

What about the Inhibitory rate % (MCF7; MCF7, 10^−5 g/ml) of the same compound?
The Inhibitory rate % was 38.60%.

What about the “Inhibitory rate, sensitivity class” value (MCF7; MCF7, 10^−6 g/ml) of the same compound?
Its value is “insensitive (<30% means insensitive)”.

For `O=C(c1cc(O)c(O)cc1O)c1ccc(O)c(O)c1O`, which IC50 (HIV-1 integrase) is on record?
The IC50 was 37.8 µM.

What about the Inhibitory rate % (MCF7; MCF7, 10^−4 g/ml) of the same compound?
Its Inhibitory rate % is 73.19%.

What about the Inhibitory rate % (MCF7; MCF7, 10^−5 g/ml) of the same compound?
Its Inhibitory rate % is 35.48%.

And the “Inhibitory rate, sensitivity class” value (MCF7; MCF7, 10^−6 g/ml)?
Its value is “insensitive (<30% means insensitive)”.

How did the IC50 (HIV-1 integrase) turn out when `O=C(c1ccc(O)cc1O)c1ccc(O)cc1O` [2,4,2′,4′-tetrahydroxybenzophenone] was run?
Its IC50 is 45.6 µM.

What about the Inhibitory rate % (MCF7; MCF7, 10^−4 g/ml) of the same compound?
The Inhibitory rate % was 45.73%.

What about the “Inhibitory rate, sensitivity class” value (MCF7; MCF7, 10^−5 g/ml) of the same compound?
The value was “insensitive (<30% means insensitive)”.

What about the “Inhibitory rate, sensitivity class” value (MCF7; MCF7, 10^−6 g/ml) of the same compound?
Its value is “insensitive (<30% means insensitive)”.

How did the IC50 (HIV-1 integrase) turn out when `O=C(c1ccc(O)c(O)c1O)c1ccc(O)c(O)c1O` [2,3,4,2′,3′,4′-hexahydroxybenzophenone] was run?
Its IC50 is 32.8 µM.

And the Inhibitory rate % (MCF7; MCF7, 10^−4 g/ml)?
The Inhibitory rate % was 76.37%.

What about the Inhibitory rate % (MCF7; MCF7, 10^−5 g/ml) of the same compound?
Its Inhibitory rate % is 43.52%.

What about the “Inhibitory rate, sensitivity class” value (MCF7; MCF7, 10^−6 g/ml) of the same compound?
The value was “insensitive (<30% means insensitive)”.
